# Values of other authors in patent US20230414606A1 (Lake O'Hara LLC, priority 2022, published 2023).
# What was measured:
# [1] = molecular target: CYP3A4 (Homo sapiens, UniProt P08684); conditions: based on the literature, model input
# [2] = previous studies, no patients with BMI>35 kg/m2
# [3] = tested on: CYP2D6
# [4] = based on the literature, model input
# Sequence of CYP3A4 (P08684 whole entry): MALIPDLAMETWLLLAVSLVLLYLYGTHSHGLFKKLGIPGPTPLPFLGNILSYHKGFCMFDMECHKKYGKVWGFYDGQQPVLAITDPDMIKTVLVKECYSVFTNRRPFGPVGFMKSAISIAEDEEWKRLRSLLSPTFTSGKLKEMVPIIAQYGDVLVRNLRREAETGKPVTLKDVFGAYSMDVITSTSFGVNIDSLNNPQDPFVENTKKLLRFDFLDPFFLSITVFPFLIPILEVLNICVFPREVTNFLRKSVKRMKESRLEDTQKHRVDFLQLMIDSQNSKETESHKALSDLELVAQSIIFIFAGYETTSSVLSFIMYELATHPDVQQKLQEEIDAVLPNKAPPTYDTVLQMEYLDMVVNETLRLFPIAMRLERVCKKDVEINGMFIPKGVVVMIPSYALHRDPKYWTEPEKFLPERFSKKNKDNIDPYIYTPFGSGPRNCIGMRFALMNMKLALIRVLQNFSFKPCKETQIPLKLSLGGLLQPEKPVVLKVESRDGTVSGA
smiles,measurement,setting,value
"O=c1ccc2ccc(OCCCCN3CCN(c4cccc5sccc45)CC3)cc2[nH]1 [brexpiprazole, 7-14-14-(1-Benzothiophen-4-yl)piperazin-1-yllbutoxylquinolin-2(1H)-one]",brexpiprazole clearance due to CYP3A4,[1],46.7%
same,brexpiprazole clearance due to other routes,[4],10%
same,renal clearance,"model assumption, clearance entirely in the liver",~1%
same,effect of weight on the pharmacokinetics of brexpiprazole,[2],less than 20%
same,decrease of baseline clearance by CYP2D6 PM status,[3]; CYP2D6 PM,~30%
same,brexpiprazole clearance due to CYP2D6,[3]; [4],43.3%
